Experiments:
Type in all cases: biochemical
Akt1/PKBa = biological target: T1, Akt1/PKBa (Homo sapiens, UniProt P31749); experiment: Kinase Selectivity Assay (CEREP, HTRF); conditions: read-out: % Inhibition at 10 μM Concentration, Akt1/PKBalpha
T1 construct: CEREP, France (ran the assays)
Method: (§1) kinase, ROCK2, RSK2, Src kinase, Syk, and TRKA. The % Inhibition was determined

CDK2 (cycE) = biological target: T2, CDK2 (cycE) (Homo sapiens, UniProt P24941); experiment: Kinase Selectivity Assay (CEREP, HTRF); conditions: read-out: % Inhibition at 10 μM Concentration, CDK2 (cycE)
T2 construct: CEREP, France (ran the assays)
Method: as §1

CaMK2a = biological target: T3, CaMK2a (Homo sapiens, UniProt Q9UQM7); experiment: Kinase Selectivity Assay (CEREP, HTRF); conditions: read-out: % Inhibition at 10 μM Concentration, CaMK2alpha
T3 construct: CEREP, France (ran the assays)
T3 sequence (Q9UQM7 whole entry): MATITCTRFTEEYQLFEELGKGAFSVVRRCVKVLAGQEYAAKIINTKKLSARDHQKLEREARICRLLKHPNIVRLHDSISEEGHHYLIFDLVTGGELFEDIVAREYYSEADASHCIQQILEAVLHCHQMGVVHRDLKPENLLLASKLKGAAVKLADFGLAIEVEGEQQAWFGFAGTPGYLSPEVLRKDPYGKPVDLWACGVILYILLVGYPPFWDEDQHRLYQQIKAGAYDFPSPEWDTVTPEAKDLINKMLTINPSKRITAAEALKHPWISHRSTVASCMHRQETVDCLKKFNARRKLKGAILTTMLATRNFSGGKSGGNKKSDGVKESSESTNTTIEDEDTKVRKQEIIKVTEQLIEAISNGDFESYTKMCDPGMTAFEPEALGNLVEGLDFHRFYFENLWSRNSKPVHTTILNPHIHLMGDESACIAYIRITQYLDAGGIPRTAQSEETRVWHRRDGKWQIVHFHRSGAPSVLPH
Method: as §1

CaMK4 = biological target: T4, CaMK4 (Homo sapiens, UniProt Q16566); experiment: Kinase Selectivity Assay (CEREP, HTRF); conditions: read-out: % Inhibition at 10 μM Concentration, CaMK4
T4 construct: CEREP, France (ran the assays)
T4 sequence (Q16566 1-473): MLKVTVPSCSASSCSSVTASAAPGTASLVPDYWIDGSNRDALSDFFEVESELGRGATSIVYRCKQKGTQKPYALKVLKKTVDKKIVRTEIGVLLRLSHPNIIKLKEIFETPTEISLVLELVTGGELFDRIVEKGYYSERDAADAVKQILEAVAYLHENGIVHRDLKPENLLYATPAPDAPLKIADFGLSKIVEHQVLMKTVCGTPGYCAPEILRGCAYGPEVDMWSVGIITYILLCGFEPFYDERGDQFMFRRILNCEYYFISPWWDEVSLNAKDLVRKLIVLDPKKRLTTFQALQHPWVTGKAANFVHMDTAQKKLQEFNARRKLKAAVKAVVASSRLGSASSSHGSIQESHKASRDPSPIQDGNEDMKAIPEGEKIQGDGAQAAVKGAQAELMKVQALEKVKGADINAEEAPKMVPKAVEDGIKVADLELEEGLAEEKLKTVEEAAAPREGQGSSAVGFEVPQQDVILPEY
Method: as §1

EphB4 kinase = biological target: T5, EphB4 kinase (Homo sapiens, UniProt P54760); experiment: Kinase Selectivity Assay (CEREP, HTRF); conditions: read-out: % Inhibition at 10 μM Concentration, EphB4
T5 construct: CEREP, France (ran the assays)
T5 sequence (P54760 16-987): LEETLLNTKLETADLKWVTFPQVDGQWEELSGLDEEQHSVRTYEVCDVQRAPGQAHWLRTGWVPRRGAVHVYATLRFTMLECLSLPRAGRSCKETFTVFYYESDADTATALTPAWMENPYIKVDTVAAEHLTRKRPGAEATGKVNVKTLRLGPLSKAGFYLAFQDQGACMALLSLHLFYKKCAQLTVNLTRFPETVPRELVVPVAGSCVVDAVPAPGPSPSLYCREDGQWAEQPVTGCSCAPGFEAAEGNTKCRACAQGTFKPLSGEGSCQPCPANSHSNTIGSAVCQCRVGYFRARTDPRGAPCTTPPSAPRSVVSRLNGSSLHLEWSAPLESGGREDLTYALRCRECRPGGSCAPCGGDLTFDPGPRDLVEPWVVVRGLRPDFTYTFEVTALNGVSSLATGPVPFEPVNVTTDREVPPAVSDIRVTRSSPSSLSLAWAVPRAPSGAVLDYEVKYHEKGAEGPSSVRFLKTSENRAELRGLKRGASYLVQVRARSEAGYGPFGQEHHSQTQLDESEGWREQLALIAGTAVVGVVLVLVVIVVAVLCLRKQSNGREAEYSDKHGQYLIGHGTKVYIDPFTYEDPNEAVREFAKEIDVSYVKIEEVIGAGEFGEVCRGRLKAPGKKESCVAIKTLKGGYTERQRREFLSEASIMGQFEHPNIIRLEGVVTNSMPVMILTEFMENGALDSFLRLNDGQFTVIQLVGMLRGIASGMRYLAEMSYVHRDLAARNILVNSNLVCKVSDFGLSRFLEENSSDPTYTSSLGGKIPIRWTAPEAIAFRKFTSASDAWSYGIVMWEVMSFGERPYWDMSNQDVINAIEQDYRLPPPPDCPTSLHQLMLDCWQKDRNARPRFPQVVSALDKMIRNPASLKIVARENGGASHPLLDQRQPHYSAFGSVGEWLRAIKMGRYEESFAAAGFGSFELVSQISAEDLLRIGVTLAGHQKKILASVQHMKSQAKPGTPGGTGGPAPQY
Method: as §1

FGFR2 kinase = biological target: T6, FGFR2 kinase (Homo sapiens, UniProt P21802); experiment: Kinase Selectivity Assay (CEREP, HTRF); conditions: read-out: % Inhibition at 10 μM Concentration, FGFR2
T6 construct: CEREP, France (ran the assays)
T6 sequence (P21802 22-821): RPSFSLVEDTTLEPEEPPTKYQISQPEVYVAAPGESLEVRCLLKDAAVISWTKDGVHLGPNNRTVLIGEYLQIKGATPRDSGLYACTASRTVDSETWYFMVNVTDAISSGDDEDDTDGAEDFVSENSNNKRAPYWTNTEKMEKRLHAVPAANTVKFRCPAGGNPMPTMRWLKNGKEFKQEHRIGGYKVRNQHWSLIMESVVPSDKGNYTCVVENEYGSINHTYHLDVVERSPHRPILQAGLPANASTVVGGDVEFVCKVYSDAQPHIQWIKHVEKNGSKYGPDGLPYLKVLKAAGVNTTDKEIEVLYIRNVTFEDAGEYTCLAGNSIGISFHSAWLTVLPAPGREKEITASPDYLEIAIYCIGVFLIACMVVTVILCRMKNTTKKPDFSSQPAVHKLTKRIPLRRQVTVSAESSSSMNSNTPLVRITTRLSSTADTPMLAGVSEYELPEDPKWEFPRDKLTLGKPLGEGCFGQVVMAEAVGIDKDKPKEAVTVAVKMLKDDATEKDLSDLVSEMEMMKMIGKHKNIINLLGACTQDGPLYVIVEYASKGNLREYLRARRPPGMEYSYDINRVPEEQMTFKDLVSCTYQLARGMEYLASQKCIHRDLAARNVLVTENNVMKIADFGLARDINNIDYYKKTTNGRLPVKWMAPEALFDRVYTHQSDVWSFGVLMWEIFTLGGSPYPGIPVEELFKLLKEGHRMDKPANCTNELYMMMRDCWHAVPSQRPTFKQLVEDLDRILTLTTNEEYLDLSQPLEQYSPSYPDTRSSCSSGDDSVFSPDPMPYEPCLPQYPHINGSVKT
Method: as §1

FGFR4 kinase = biological target: T7, FGFR4 kinase (Homo sapiens, UniProt P22455); experiment: Kinase Selectivity Assay (CEREP, HTRF); conditions: read-out: % Inhibition at 10 μM Concentration, FGFR4
T7 construct: CEREP, France (ran the assays)
T7 sequence (P22455 22-802): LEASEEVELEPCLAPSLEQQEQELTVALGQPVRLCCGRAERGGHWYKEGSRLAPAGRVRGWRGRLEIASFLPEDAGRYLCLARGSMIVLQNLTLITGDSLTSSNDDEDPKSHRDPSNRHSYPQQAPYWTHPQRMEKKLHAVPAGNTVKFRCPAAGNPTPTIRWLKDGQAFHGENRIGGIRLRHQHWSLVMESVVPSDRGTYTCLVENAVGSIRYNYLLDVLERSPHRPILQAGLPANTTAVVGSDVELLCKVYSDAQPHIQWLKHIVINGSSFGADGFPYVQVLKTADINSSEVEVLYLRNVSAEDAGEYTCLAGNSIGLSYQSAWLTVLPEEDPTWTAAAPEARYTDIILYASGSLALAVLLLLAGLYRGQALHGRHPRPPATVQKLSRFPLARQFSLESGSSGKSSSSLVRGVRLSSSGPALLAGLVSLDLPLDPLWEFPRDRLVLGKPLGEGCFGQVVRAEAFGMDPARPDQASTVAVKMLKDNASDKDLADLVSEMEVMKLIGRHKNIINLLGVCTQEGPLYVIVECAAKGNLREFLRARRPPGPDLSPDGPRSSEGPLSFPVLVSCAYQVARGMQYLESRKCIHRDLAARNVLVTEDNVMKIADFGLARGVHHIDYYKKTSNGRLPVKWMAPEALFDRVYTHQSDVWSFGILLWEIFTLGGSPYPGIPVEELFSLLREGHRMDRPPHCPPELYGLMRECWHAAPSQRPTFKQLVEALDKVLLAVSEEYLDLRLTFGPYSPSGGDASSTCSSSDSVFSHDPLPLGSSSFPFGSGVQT
Method: as §1

KDR kinase (VEGFR2) = KDR kinase (VEGFR2) (Homo sapiens, UniProt P35968); experiment: Kinase Selectivity Assay (CEREP, HTRF); conditions: read-out: % Inhibition at 10 μM Concentration, KDR (VEGFR2)
Method: as §1

MEK1/MAP2K1 = MEK1/MAP2K1 (Homo sapiens, UniProt Q02750); experiment: Kinase Selectivity Assay (CEREP, HTRF); conditions: read-out: % Inhibition at 10 μM Concentration, MEK1/MAP2K1
MEK1/MAP2K1, sequence (Q02750 whole entry): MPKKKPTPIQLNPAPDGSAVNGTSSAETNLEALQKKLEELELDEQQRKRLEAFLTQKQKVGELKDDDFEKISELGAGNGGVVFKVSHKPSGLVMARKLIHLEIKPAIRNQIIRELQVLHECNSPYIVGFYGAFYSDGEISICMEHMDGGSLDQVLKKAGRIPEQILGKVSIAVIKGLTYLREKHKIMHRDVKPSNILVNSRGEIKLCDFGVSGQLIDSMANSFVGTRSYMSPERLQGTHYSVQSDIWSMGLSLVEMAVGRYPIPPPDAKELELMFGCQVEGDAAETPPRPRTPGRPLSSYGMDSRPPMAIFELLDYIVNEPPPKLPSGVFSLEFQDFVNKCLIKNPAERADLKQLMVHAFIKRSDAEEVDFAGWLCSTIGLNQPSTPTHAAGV
Method: as §1

PKA = PKA (Homo sapiens, UniProt P17612); experiment: Kinase Selectivity Assay (CEREP, HTRF); conditions: read-out: % Inhibition at 10 μM Concentration, PKA
Method: as §1

RSK2 = RSK2 (Homo sapiens, UniProt P51812); experiment: Kinase Selectivity Assay (CEREP, HTRF); conditions: read-out: % Inhibition at 10 μM Concentration, RSK2
Method: as §1

Ret = Ret (Homo sapiens, UniProt P07949); experiment: Kinase Selectivity Assay (CEREP, HTRF); conditions: read-out: % Inhibition at 10 μM Concentration, Ret
Ret, sequence (P07949 29-1114): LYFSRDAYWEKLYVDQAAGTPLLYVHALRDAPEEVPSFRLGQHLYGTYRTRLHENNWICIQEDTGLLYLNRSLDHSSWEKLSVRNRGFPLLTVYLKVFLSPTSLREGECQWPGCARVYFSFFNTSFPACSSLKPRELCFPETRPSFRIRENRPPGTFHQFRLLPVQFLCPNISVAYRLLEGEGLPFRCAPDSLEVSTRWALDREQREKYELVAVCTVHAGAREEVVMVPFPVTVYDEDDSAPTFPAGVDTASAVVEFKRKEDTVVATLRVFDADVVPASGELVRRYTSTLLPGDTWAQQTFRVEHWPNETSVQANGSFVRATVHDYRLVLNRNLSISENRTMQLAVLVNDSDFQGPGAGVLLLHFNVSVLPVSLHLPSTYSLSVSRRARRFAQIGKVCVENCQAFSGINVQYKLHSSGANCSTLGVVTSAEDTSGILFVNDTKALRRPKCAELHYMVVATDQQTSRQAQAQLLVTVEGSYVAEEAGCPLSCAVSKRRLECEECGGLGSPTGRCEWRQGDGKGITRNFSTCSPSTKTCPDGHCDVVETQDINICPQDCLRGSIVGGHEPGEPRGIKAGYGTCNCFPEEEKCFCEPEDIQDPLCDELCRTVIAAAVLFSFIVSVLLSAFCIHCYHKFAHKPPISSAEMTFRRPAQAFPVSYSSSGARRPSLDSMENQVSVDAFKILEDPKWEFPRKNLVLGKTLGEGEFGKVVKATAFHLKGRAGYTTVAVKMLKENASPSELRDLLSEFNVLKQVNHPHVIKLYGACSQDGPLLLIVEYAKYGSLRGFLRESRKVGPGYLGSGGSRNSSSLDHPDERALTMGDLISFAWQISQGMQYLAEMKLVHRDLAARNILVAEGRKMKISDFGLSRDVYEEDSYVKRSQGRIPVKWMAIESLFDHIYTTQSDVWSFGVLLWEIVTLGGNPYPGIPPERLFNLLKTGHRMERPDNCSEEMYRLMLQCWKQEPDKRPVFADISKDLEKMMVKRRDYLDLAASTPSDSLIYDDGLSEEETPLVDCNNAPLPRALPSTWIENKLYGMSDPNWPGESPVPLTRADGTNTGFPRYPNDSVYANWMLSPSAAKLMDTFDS
Method: as §1

Src kinase = Src kinase (Homo sapiens, UniProt P12931); experiment: Kinase Selectivity Assay (CEREP, HTRF); conditions: read-out: % Inhibition at 10 μM Concentration, Src
Src kinase, sequence (P12931 whole entry): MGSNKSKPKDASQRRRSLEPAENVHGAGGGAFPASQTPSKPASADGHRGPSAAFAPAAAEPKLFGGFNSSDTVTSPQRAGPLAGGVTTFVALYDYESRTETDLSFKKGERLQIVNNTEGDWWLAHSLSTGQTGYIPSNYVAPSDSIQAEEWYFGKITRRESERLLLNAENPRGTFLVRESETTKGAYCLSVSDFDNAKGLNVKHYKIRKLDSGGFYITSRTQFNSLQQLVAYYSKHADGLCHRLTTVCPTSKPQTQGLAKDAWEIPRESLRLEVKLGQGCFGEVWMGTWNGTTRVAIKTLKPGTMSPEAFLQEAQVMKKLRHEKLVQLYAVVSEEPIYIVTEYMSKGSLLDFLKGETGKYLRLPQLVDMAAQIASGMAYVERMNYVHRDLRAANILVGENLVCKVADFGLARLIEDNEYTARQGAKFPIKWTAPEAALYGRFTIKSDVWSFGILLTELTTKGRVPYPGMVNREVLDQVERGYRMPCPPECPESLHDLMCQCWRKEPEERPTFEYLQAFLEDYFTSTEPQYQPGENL
Method: as §1

Abl = Abl (Homo sapiens, UniProt P00519); experiment: Millipore kinase assay, radiolabelled phosphopeptide filter binding, IC50 estimate; parameters: purchased Millipore (assay service); conditions: estimated from inhibition at three compound concentrations; ATP at the Km
Method: Kinase assays at Millipore were performed using a radiolabelled phosphopeptide filter binding detection system, in duplicate, at each compound concentration. The ATP substrate concentration in the reactions was at the Km for each enzyme.
To allow for a more direct comparison of compound inhibition, an IC50 value was estimated from the inhibition determined at three compound concentrations. Several assumptions were made to allow this calculation using a 4 parameter non linear curve fit model, including full inhibition set at 100%, no inhibition set to 0%, and a curve fit parameter set at 1. The inflection point was reported as the estimated IC50.

T1 sequence (P31749 whole entry): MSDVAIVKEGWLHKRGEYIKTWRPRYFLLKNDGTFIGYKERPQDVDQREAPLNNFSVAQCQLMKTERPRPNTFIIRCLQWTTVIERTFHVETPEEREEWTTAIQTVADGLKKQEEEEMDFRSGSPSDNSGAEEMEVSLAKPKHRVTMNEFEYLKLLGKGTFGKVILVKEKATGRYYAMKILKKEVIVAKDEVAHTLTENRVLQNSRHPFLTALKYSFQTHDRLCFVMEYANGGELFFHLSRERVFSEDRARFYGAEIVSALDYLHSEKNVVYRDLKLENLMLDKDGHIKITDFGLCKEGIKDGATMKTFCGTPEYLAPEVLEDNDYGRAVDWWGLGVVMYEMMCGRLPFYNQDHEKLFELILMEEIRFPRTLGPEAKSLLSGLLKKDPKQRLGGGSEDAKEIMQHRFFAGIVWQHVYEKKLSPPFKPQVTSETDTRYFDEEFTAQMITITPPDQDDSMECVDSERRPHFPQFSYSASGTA

Q: Which inhibition at 10 µM (Akt1/PKBa) does the source give for O=C1Nc2ccccc2C1=Cc1ccc2c(/C=C/c3ccccn3)n[nH]c2c1 (mixture of isomers) [Example A41, (E and Z)-3-((3-((E)-2-(pyridin-2-yl)vinyl)-1H-indazol-6-yl)methylene)indolin-2-one] here?
A: -3%

Q: And the inhibition at 10 µM (CDK2 (cycE))?
A: 8%

Q: What about the inhibition at 10 µM (CaMK2a) of the same molecule?
A: 31%

Q: And the inhibition at 10 µM (CaMK4)?
A: 27%

Q: And the inhibition at 10 µM (EphB4 kinase)?
A: 85%

Q: What about the inhibition at 10 µM (FGFR2 kinase) of the same molecule?
A: 97%

Q: And the inhibition at 10 µM (FGFR4 kinase)?
A: 38%

Q: And the inhibition at 10 µM (KDR kinase (VEGFR2))?
A: 100%

Q: And the inhibition at 10 µM (MEK1/MAP2K1)?
A: 46%

Q: What about the inhibition at 10 µM (PKA) of the same molecule?
A: -4%

Q: What about the inhibition at 10 µM (RSK2) of the same molecule?
A: 38%

Q: What about the inhibition at 10 µM (Ret) of the same molecule?
A: 98%

Q: And the inhibition at 10 µM (Src kinase)?
A: 59%

Q: What about the IC50 (Abl) of the same molecule?
A: < 5 µM

Q: Which results are given for COc1ccc2c(c1)C(=Cc1ccc3c(-c4ccc(N5CCN(C)CC5)nc4)n[nH]c3c1)C(=O)N2 (mixture of isomers) [Example A97, (E and Z)-5-methoxy-3-((3-(6-(4-methylpiperazin-1-yl)pyridin-3-yl)-1H-indazol-6-yl)methylene)indolin-2-one]?
A: inhibition at 10 µM (Akt1/PKBa): -4%; inhibition at 10 µM (CDK2 (cycE)): 3%; inhibition at 10 µM (CaMK2a): 14%; inhibition at 10 µM (CaMK4): 2%; inhibition at 10 µM (EphB4 kinase): 6%; inhibition at 10 µM (FGFR2 kinase): 35%; inhibition at 10 µM (FGFR4 kinase): 30%; inhibition at 10 µM (KDR kinase (VEGFR2)): 93%; inhibition at 10 µM (MEK1/MAP2K1): 9%; inhibition at 10 µM (PKA): 0%; inhibition at 10 µM (RSK2): 37%; inhibition at 10 µM (Ret): 93%; inhibition at 10 µM (Src kinase): 24%; IC50 (Abl): < 5 µM

Q: How did the IC50 (Abl) turn out when CN(C)Cc1ccc(/C=C/c2n[nH]c3cc(C=C4C(=O)Nc5ccccc54)ccc23)cc1 (mixture of isomers) [Example A106, (E and Z)-3-[(3-{(E)-2-[4-((dimethylamino)methyl)-phenyl]-ethenyl}-1H-indazol-6-yl)methylidene]-1,3-dihydro-2H-indol-2-one 2,2,2-trifluoroacetate] was run?
A: < 5 µM

Q: What does the source list for O=C1Nc2ccccc2/C1=C\c1ccc2[nH]nnc2c1 [Example A1, (E)-3-((1H-benzo[d][1,2,3]triazol-5-yl)methylene)indolin-2-one]?
A: inhibition at 10 µM (Akt1/PKBa): -3%; inhibition at 10 µM (CDK2 (cycE)): 10%; inhibition at 10 µM (CaMK2a): 4%; inhibition at 10 µM (CaMK4): 3%; inhibition at 10 µM (EphB4 kinase): 5%; inhibition at 10 µM (FGFR2 kinase): 68%; inhibition at 10 µM (FGFR4 kinase): 18%; inhibition at 10 µM (KDR kinase (VEGFR2)): 59%; inhibition at 10 µM (MEK1/MAP2K1): 20%; inhibition at 10 µM (PKA): 9%; inhibition at 10 µM (RSK2): 4%; inhibition at 10 µM (Ret): 67%; inhibition at 10 µM (Src kinase): 10%

Q: What does the source list for O=C1Nc2ccccc2/C1=C\c1ccc2cn[nH]c2c1 [Example A5, (E)-3-((1H-indazol-6-yl)methylene)indolin-2-one]?
A: inhibition at 10 µM (Akt1/PKBa): -4%; inhibition at 10 µM (CDK2 (cycE)): 16%; inhibition at 10 µM (CaMK2a): -3%; inhibition at 10 µM (CaMK4): 26%; inhibition at 10 µM (EphB4 kinase): -5%; inhibition at 10 µM (FGFR2 kinase): 31%; inhibition at 10 µM (FGFR4 kinase): -4%; inhibition at 10 µM (KDR kinase (VEGFR2)): 29%; inhibition at 10 µM (MEK1/MAP2K1): 3%; inhibition at 10 µM (PKA): -1%; inhibition at 10 µM (RSK2): 1%; inhibition at 10 µM (Ret): 41%; inhibition at 10 µM (Src kinase): -9%

Q: How did the inhibition at 10 µM (Akt1/PKBa) turn out when O=C1Nc2ccccc2/C1=C\c1ccc2c(/C=C/c3ccccc3Cl)n[nH]c2c1 [Example A60, (E)-3-((3-((E)-2-chlorostyryl)-1H-indazol-6-yl)methylene)indolin-2-one] was run?
A: -14%

Q: And the inhibition at 10 µM (CDK2 (cycE))?
A: 5%

Q: And the inhibition at 10 µM (CaMK2a)?
A: -2%

Q: What about the inhibition at 10 µM (CaMK4) of the same molecule?
A: -15%

Q: And the inhibition at 10 µM (EphB4 kinase)?
A: -14%

Q: And the inhibition at 10 µM (FGFR2 kinase)?
A: 10%

Q: What about the inhibition at 10 µM (FGFR4 kinase) of the same molecule?
A: 6%

Q: And the inhibition at 10 µM (KDR kinase (VEGFR2))?
A: 8%

Q: And the inhibition at 10 µM (MEK1/MAP2K1)?
A: 16%

Q: And the inhibition at 10 µM (PKA)?
A: 7%

Q: What about the inhibition at 10 µM (RSK2) of the same molecule?
A: 0%

Q: And the inhibition at 10 µM (Ret)?
A: 33%

Q: And the inhibition at 10 µM (Src kinase)?
A: 0%

Source: US8765748B2, “Indazolyl, benzimidazolyl, benzotriazolyl substituted indolinone derivatives as kinase inhibitors useful in the treatment of cancer” (University Health Network, priority 2007, dated 2014)
